Each compound was assayed against T1, G1 APOL1 (Homo sapiens, UniProt O14791, I384M/S342G) (assay: Acute APOL1 Thallium Assay with inducible stable clones of HEK 293 cells). Settings: Table 24, Compounds 287 to 465; read-out: Thallium Assay (IC50).
T1 construct: expressed in transfected cells
T1 sequence (O14791 28-398 S342G/I384M): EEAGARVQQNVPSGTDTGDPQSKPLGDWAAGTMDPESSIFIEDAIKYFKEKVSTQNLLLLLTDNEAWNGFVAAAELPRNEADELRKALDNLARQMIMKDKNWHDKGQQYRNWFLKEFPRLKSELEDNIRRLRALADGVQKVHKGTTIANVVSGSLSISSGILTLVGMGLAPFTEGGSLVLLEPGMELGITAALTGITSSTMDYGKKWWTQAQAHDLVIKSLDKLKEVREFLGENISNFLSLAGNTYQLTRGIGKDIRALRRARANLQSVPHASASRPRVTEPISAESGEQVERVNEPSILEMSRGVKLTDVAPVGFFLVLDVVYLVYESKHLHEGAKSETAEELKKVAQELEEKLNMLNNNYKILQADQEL
Format: cell-based
How it was run: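 Tetracycline-inducible HEK293 T-Rex clone G1 DC3.25 expressing G1 APOL1, plated at 26000 cells/well in Opti-MEM with tetracycline induction. APOL1 pore activity read on FLIPR as fluorescence increase from Tl+ influx into cells loaded with a Tl+-sensitive AM-ester dye.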

Row | SMILES | IC50
1 | O=C(NC(CO)(CO)CO)O[C@H]1C[C@H](c2c(-c3ccc(F)cc3)[nH]c3c(F)cc(F)cc32)C1 [Compound 349, (1r, 3r)-3-(5,7-difluoro-2-(4-fluorophenyl)-1H-indol-3-yl)cyclobutyl (1,3-dihydroxy-2-(hydroxymethyl)propan-2-yl)carbamate] | < 250 nM
2 | O=C(NCCO)O[C@H]1C[C@H](c2c(-c3ccc(F)cc3)[nH]c3c(F)cc(F)cc32)C1 [Compound 350] | 250 to 1000 nM
3 | O=C(NCC(F)F)O[C@H]1C[C@H](c2c(-c3ccc(F)cc3)[nH]c3c(F)cc(F)cc32)C1 [Compound 351] | 250 to 1000 nM
4 | CC(C)(CO)NC(=O)O[C@H]1C[C@H](c2c(-c3ccc(F)cc3)[nH]c3c(F)cc(F)cc32)C1 [Compound 352] | 250 to 1000 nM
5 | O=C(NCc1cnco1)O[C@H]1C[C@H](c2c(-c3ccc(F)cc3)[nH]c3c(F)cc(F)cc32)C1 [Compound 353] | 250 to 1000 nM
6 | C[C@H](CO)NC(=O)O[C@H]1C[C@H](c2c(-c3ccc(F)cc3)[nH]c3c(F)cc(F)cc32)C1 [Compound 354] | 250 to 1000 nM
7 | NC(=O)CNC(=O)O[C@H]1C[C@H](c2c(-c3ccc(F)cc3)[nH]c3c(F)cc(F)cc32)C1 [Compound 355] | 250 to 1000 nM
8 | C[C@@H](CO)NC(=O)O[C@H]1C[C@H](c2c(-c3ccc(F)cc3)[nH]c3c(F)cc(F)cc32)C1 [Compound 357] | 250 to 1000 nM
9 | O=C(NC1CC1)O[C@H]1C[C@H](c2c(-c3ccc(F)cc3)[nH]c3c(F)cc(F)cc32)C1 [Compound 358] | 250 to 1000 nM
10 | O=C(N[C@@H]1CCNC1=O)O[C@H]1C[C@H](c2c(-c3ccc(F)cc3)[nH]c3c(F)cc(F)cc32)C1 [Compound 359] | 250 to 1000 nM
11 | CC1(O)CC(NC(=O)O[C@H]2C[C@H](c3c(-c4ccc(F)cc4)[nH]c4c(F)cc(F)cc43)C2)C1 (stereo partly shown) [Compound 361] | > 1000 nM
12 | O=C(N[C@H](CO)C(F)(F)F)O[C@H]1C[C@H](c2c(-c3ccc(F)cc3)[nH]c3c(F)cc(F)cc32)C1 [Compound 362] | > 1000 nM
13 | COC[C@H](C)NC(=O)O[C@H]1C[C@H](c2c(-c3ccc(F)cc3)[nH]c3c(F)cc(F)cc32)C1 [Compound 364] | > 1000 nM
14 | C[C@H](O)CNC(=O)O[C@H]1C[C@H](c2c(-c3ccc(F)cc3)[nH]c3c(F)cc(F)cc32)C1 [Compound 365] | > 1000 nM
15 | C[C@H](O)[C@H](CO)NC(=O)O[C@H]1C[C@H](c2c(-c3ccc(F)cc3)[nH]c3c(F)cc(F)cc32)C1 [Compound 366] | > 1000 nM
16 | O=C(NCC(O)CO)O[C@H]1C[C@H](c2c(-c3ccc(F)cc3)[nH]c3c(F)cc(F)cc32)C1 (stereo partly shown) [Compound 367] | > 1000 nM
17 | Cn1cnc(CNC(=O)O[C@H]2C[C@H](c3c(-c4ccc(F)cc4)[nH]c4c(F)cc(F)cc43)C2)c1 [Compound 368] | > 1000 nM
18 | C[C@@H](O)CNC(=O)O[C@H]1C[C@H](c2c(-c3ccc(F)cc3)[nH]c3c(F)cc(F)cc32)C1 [Compound 369] | > 1000 nM
19 | O=C(NCC1CC1)O[C@H]1C[C@H](c2c(-c3ccc(F)cc3)[nH]c3c(F)cc(F)cc32)C1 [Compound 370] | > 1000 nM
20 | O=C(N[C@H]1CCNC1=O)O[C@H]1C[C@H](c2c(-c3ccc(F)cc3)[nH]c3c(F)cc(F)cc32)C1 [Compound 371] | > 1000 nM
21 | C[C@@H](O)[C@@H](CO)NC(=O)O[C@H]1C[C@H](c2c(-c3ccc(F)cc3)[nH]c3c(F)cc(F)cc32)C1 [Compound 372] | > 1000 nM
22 | O=C(NCc1ncc[nH]1)O[C@H]1C[C@H](c2c(-c3ccc(F)cc3)[nH]c3c(F)cc(F)cc32)C1 [Compound 373] | > 1000 nM
23 | Cc1cnc(CNC(=O)O[C@H]2C[C@H](c3c(-c4ccc(F)cc4)[nH]c4c(F)cc(F)cc43)C2)o1 [Compound 374] | > 1000 nM
24 | Cc1ccc(CNC(=O)O[C@H]2C[C@H](c3c(-c4ccc(F)cc4)[nH]c4c(F)cc(F)cc43)C2)o1 [Compound 375] | > 1000 nM
25 | COC1CC1NC(=O)O[C@H]1C[C@H](c2c(-c3ccc(F)cc3)[nH]c3c(F)cc(F)cc32)C1 (stereo partly shown) [Compound 376] | > 1000 nM

— US12116343B2, “Inhibitors of APOL1 and methods of using same” (Vertex Pharmaceuticals Incorporated, priority 2020, dated 2024)
